In patent US20240075093A1, “COMPOSITIONS AND METHODS OF TREATING A PI3K MEDIATED DISEASE” (VIRGINIA TECH INTELLECTUAL PROPERTIES, INC., priority 2020, published 2024):
Where no end group is shown, it is not given here.

Legend:
U87MG cells = test: MTS cell viability assay; format: cell-based, human; details: 20 μM TGX-221/50 μM TMZ plus αCT1
Description: Cell viability was measured by the MTS assay. P values were determined using the student t test or one-way ANOVA. Error bars represent three independent experiments.
Cell viability was determined using the MTS viability assay. The vehicle DMSO was the control and set as 100%. Treated cells were normalized to DMSO-treated cells. […] (FIG. 43D) Scores of Excess Over Bliss in FIG. 43C calculated using the Bliss Independence model. One-way ANOVA and student t test were used to determine statistical significance.
Cell viability was determined by the MTS cell viability assay (Promega) as described previously 21,24-27. In brief, 250 to 1,000 cells were plated in the wells of a 96-well plate-based upon the cell growth rate. Because the drug treatment usually takes 6-7 days, fast-growing cells could be over-grown if plated at a high cell density. For αCT1 treatment experiments, Applicant intended to plate cells at a low density to minimize the formation of gap junctions, and thus, more Cx43-hemichannels can be present. […] At each hour time point, the absorbance at 490 nm was measured using a FilterMax F3 microplate reader (Molecular Devices, LLC) according to the manufacturer's instructions. Percent cell viability was obtained by dividing the absorbance of treatment groups to those of untreated and respective vehicle control groups.

half-life of αCT1 = format: in vitro ADME; details: cell culture treatment
MDA-MB-435S cells = test: melanoma cell viability (CellTiter Blue); format: cell-based; details: 50 μM, 6 days, daily repeated dosing
Description: (§1) (FIG. 49A) Immunoblotting of p110s and signaling molecules. 3-actin (ACTB) was used as the loading control. (FIG. 49B) Summary of genetic mutations and protein levels in melanoma cells. Information regarding hot spot mutations was retrieved from e.g., DepMap. (FIG. 49C) Cells were treated with 0-40 μM of inhibitors. Cell viability was measured using CellTiter Blue. IC50s were calculated using Graphpad.
(§2) (FIG. 52A) Cells were treated with 10 μM Selectide-18-FITC for 1 h and imaged immediately or after 96h. (FIG. 52B) Selectide-18-FITC in melanoma cells were imaged at different times. FITC was quantified using Image J and FITC intensities at different times were normalized with that at 1 h. Half-life was calculated using GraphPad. (FIG. 52C) UACC-62, MelST, or MeWo cells were treated with 50 μM of Selectide-18 for 4 days with daily repeated dosing. (FIG. 52D) MelST or melanoma cells were treated with 50 μM of Selectide-18 for 6 days with daily repeated dosing. Cell viability was measured using Cell-Titer Blue. (FIG. 52E) MelST, UACC-62, or MeWo cells were treated with Scramble or Selectide-18 at different doses. IC50s were calculated using GraphPad. (FIG. 52F) Nod scid mice bearing UACC-62 subcutaneous tumors were treated with Selectide-18 (3 mg/kg) intratumoral injection/daily) for 16 days. Tumors were measured using a caliper and tumor volumes were calculated as (length×width2))/2. Student t test or ANOVA was used to determine P values. ns: not significant; **: P<0.01; ***P<0.001.

p110β^hyper cells = test: melanoma cell viability (CellTiter Blue); format: cell-based; details: 50 μM Selectide-18, 6 days, daily repeated dosing
Description: as §1, §2

melanocyte MelST = format: cell-based
Description: as §1, with “(FIG. 49C) Cells were treated with 0-40 μM of inhibitors.” left out
as §2, with “Student t test or ANOVA was used to determine P values. ns: not significant; **: P<0.01; ***P<0.001.” left out

other melanoma cells = test: melanoma cell viability (CellTiter Blue); format: cell-based; details: 50 μM Selectide-18, 6 days, daily repeated dosing
Description: as §2

PI3K in MeWo cells = test: PI3K activity after Selectide-18; format: cell-based; details: 50 μM, 4 days, daily repeated dosing
Description: as §2

PI3K in MelST cells = test: PI3K activity after Selectide-18; format: cell-based; details: 50 μM, 4 days, daily repeated dosing
Description: as §2

PI3K in UACC-62 cells = test: PI3K activity after Selectide-18; format: cell-based; details: 50 μM, 4 days, daily repeated dosing
Description: as §2

[1] = uptake and intracellular half-life of Selectide-18-FITC; format: cell-based; details: human, SKMEL-147 melanoma cells (intracellular); FITC intensity normalized to 1 h; read-out: half-life (HL) in cells (converted)
Description: as §2

[2] = intracellular half-life of Selectide-18-FITC; format: cell-based; details: human, UACC-62 melanoma cells (intracellular); FITC intensity normalized to 1 h; read-out: half-life (HL) in cells (converted)
Description: as §2

UACC-62 xenografts = test: UACC-62 subcutaneous xenograft; format: in vivo, Nod scid mice; details: 3 mg/kg, intratumoral injection daily, 16 days
Description: as §2

Sequence | cytotoxic effect of TMZ/TGX-221 double combination upon addition of αCT1 (U87MG cells) | half-life (half-life of αCT1) | sensitivity to Selectide-18 (MDA-MB-435S cells) | cell viability (p110β^hyper cells) | IC50 (melanocyte MelST) | cell viability (other melanoma cells) | PI3K activity (PI3K in MeWo cells) | PI3K activity (PI3K in MelST cells) | PI3K activity (PI3K in UACC-62 cells) | half-life [1] | half-life [2] | in vivo growth of xenografts (UACC-62 xenografts)
RQPKIWFPNRRKPWKKRPRPDDLEI [αCT1] | greatly increased the cytotoxic effect | ~48 h |  |  |  |  |  |  |  |  |  | 
TKKSTKTINPSKYQTIRK [Selectide-18] |  |  | sensitive | suppressed the viability | ~2000 µM | without affecting | not | not | inactivated PI3K | 138 h | 77 h | blocked the in vivo growth
